For orientation: EC50 means the concentration at which the effect is half-maximal.

Several values for one entry are separate records, joined by “and”; a condition that tells them apart may be missing. Identical values can stand only once. Like-named read-outs stand apart in the source and are kept apart here. Where only a bound is given, the exact number is not on record here.

5 compounds from patent US20220313698A1, “MODULATORS OF CYSTIC FIBROSIS TRANSMEMBRANE CONDUCTANCE REGULATOR” (Vertex Pharmaceuticals Incorporated, priority 2019, published 2022) can be followed below.

Series [1] deals with T1, CFTR-mediated chloride transport (Homo sapiens, UniProt P13569). Nature of the series: Corrector Assay B - membrane potential dye assay (enteroid cells).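 Also: methyl oxonol membrane potential fluorescence followed over 15 min after switching to chloride-free buffer with forskolin, 100 µM IBMX and ivacaftor, in presence of CaCC blockers.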
Experimental: (§1) Base medium (ADF+++) consisted of Advanced DMEM/Ham's F12, 2 mM Glutamax, 10 mM HEPES, 1 μg/ml penicillin/streptomycin.
(§2) Intestinal enteroid maintenance medium (IEMM) consisted of ADF+++, 1×B27 supplement, 1×N2 supplement, 1.25 mM N-acetyl cysteine, 10 mM Nicotinamide, 50 ng/mL hEGF, 10 nM Gastrin, 1 μg/mL hR-spondin-1, 100 ng/mL hNoggin, TGF-b type 1 inhibitor A-83-01, 100 μg/mL Primocin, 10 μM P38 MAPK inhibitor SB202190.
(§3) Bath 1 Buffer consisted of 1 mM MgCl2, 160 mM NaCl, 4.5 mM KCl, 10 mM HEPES, 10 mM Glucose, 2 mM CaCl2).
(§4) Chloride Free Buffer consisted of 1 mM Magnesium Gluconate, 2 mM Calcium Gluconate, 4.5 mM Potassium Gluconate, 160 mM Sodium Gluconate, 10 mM HEPES, 10 mM Glucose.
(§5) Bath 1 Dye Solution consisted of Bath 1 Buffer, 0.04% Pluronic F127, 20 μM Methyl Oxonol, 30 μM CaCCinh-A01, 30 μM Chicago Sky Blue.
(§6) Chloride Free Dye Solution consisted of Chloride Free Buffer, 0.04% Pluronic F127, 20 μM Methyl Oxonol, 30 μM CaCCinh-A01, 30 μM Chicago Sky Blue.
(§7) Chloride Free Dye Stimulation Solution consisted of Chloride Free Dye Solution, 10 μM forskolin, 100 μM IBMX, and 300 nM Ivacaftor.
(§8) Cells were recovered in cell recovery solution, collected by centrifugation at 650 rpm for 5 min at 4° C., resuspended in TryPLE and incubated for 5 min at 37° C. Cells were then collected by centrifugation at 650 rpm for 5 min at 4° C. and resuspended in IEMM containing 10 μM ROCK inhibitor (RI). The cell suspension was passed through a 40 μm cell strainer and resuspended at 1×10^6 cells/mL in IEMM containing 10 μM RI. Cells were seeded at 5000 cells/well into multi-well plates and incubated for overnight at 37° C., 95% humidity and 5% CO2 prior to assay.
Briefly, cells were washed 5 times in Bath 1 Buffer. Bath 1 Dye Solution was added and the cells were incubated for 25 min at room temperature. Following dye incubation, cells were washed 3 times in Chloride Free Dye Solution. Chloride transport was initiated by addition of Chloride Free Dye Stimulation Solution and the fluorescence signal was read for 15 min. The CFTR-mediated chloride transport for each condition was determined from the AUC of the fluorescence response to acute forskolin and 300 nM N-[2,4-bis(1,1-dimethylethyl)-5-hydroxyphenyl]-1,4-dihydro-4-oxoquinoline-3-carboxamide stimulation. Chloride transport was then expressed as a percentage of the chloride transport following treatment with 3 μM Compound A, 3 μM (R)-1-(2,2-difluorobenzo[d][1,3]dioxol-5-yl)-N-(1-(2,3-dihydroxypropyl)-6-fluoro-2-(1-hydroxy-2-methylpropan-2-yl)-1H-indol-5-yl)cyclopropanecarboxamide and 300 nM acute N-[2,4-bis(1,1-dimethylethyl)-5-hydroxyphenyl]-1,4-dihydro-4-oxoquinoline-3-carboxamide triple combination control (% Activity).
For series [2] the following is noted: snar bond, 15-membered ring.
In series [3] the target is T1, CFTR-mediated chloride transport. Briefly: Corrector Assay A - membrane potential dye assay (enteroid cells).
Experimental: as §1, §2, §3, §4, §5, §6, §7, §8
Briefly, cells were washed 5 times in Bath 1 Buffer. Bath 1 Dye Solution was added and the cells were incubated for 25 min at room temperature. Following dye incubation, cells were washed 3 times in Chloride Free Dye Solution. Chloride transport was initiated by addition of Chloride Free Dye Stimulation Solution and the fluorescence signal was read for 15 min. The CFTR-mediated chloride transport for each condition was determined from the AUC of the fluorescence response to acute forskolin and 300 nM N-[2,4-bis(1,1-dimethylethyl)-5-hydroxyphenyl]-1,4-dihydro-4-oxoquinoline-3-carboxamide stimulation. Chloride transport was then expressed as a percentage of the chloride transport following treatment with 1 μM (14S)-8-[3-(2-{Dispiro[2.0.2.1]heptan-7-yl}ethoxy)-1H-pyrazol-1-yl]-12,12-dimethyl-2λ^6-thia-3,9,11,18,23-pentaazatetracyclo[17.3.1.111,14.05,10]tetracosa-1(22),5,7,9,19(23),20-hexaene-2,2,4-trione, 3 μM (R)-1-(2,2-difluorobenzo[d][1,3]dioxol-5-yl)-N-(1-(2,3-dihydroxypropyl)-6-fluoro-2-(1-hydroxy-2-methylpropan-2-yl)-1H-indol-5-yl)cyclopropanecarboxamide and 300 nM acute N-[2,4-bis(1,1-dimethylethyl)-5-hydroxyphenyl]-1,4-dihydro-4-oxoquinoline-3-carboxamide triple combination control (% Activity).

In the case of `CC1(C)C[C@@H]2CCCN(c3ccccc3)c3cccc(n3)S(=O)(=O)NC(=O)c3ccc(-n4ccc(OCCC5(C(F)(F)F)CC5)n4)nc3N1C2` [Compound 395, (14S)-12,12-dimethyl-18-phenyl-8-(3-{2-[1-(trifluoromethyl)cyclopropyl]ethoxy}-1H-pyrazol-1-yl)-2λ^6-thia-3,9,11,18,23-pentaazatetracyclo[17.3.1.111,14.05,10]tetracosa-1(23),5(10),6,8,19,21-hexaene-2,2,4-trione], the “Corrector Assay B % activity” value in series [1] (% of chloride transport of triple combination control (3 μM Compound A + 3 μM tezacaftor + 300 nM ivacaftor)) is on record as “++ (++ is 30-60%)”. Further, the EC50 in series [1] (read-out: Corrector Assay B EC50, human intestinal enteroid cells, 18-24 h incubation, acute 10 μM forskolin + 300 nM ivacaftor) was less than 1 µM. The ring closure, isolated yield in series [2] (from CC1(C)C[C@H](CCCN(c2ccccc2)c2cccc(S(=O)(=O)NC(=O)c3ccc(-n4ccc(OCCC5(C(F)(F)F)CC5)n4)nc3Cl)n2)CN1, K2CO3/3A MS, DMSO, 19.9 mM, 155.0 °C, 16.0 h, 2 steps) amounted to 46%.
On to `C=CC1CC[C@@H]2CN(c3nc(C(C)(C)C)ccc3C(=O)NS(=O)(=O)c3cccc(n3)N1)C(C)(C)C2` (stereo partly drawn), for which, in series [2] (from C=CC(CC[C@@H]1CN(C(=O)OC(C)(C)C)C(C)(C)C1)Nc1cccc(S(=O)(=O)NC(=O)c2ccc(C(C)(C)C)nc2F)n1, K2CO3, NMP, 159.0 mM, 150.0 °C, 2 steps), the ring closure, isolated yield is 22% and 25%.
In series [2] (from CC(C)(C)CC(CNc1cccc(S(=O)(=O)NC(=O)c2ccc(C(C)(C)C)nc2F)n1)C[C@@H]1CNC(C)(C)C1, K2CO3, DMSO, 94.7 mM, 120.0 °C, 24.0 h), `CC(C)(C)CC1CNc2cccc(n2)S(=O)(=O)NC(=O)c2ccc(C(C)(C)C)nc2N2C[C@@H](C1)CC2(C)C` (stereo partly drawn) returned a ring closure, isolated yield of 27%.
As for `CC(C)(C)c1ccnc(C2CC[C@@H]3CN(c4nc(-n5ccc(OCCC6C7(CC7)C67CC7)n5)ccc4C(=O)NS(=O)(=O)c4cccc(n4)N2)C(C)(C)C3)c1` (stereo partly drawn), in series [2] (from CC(C)(C)OC(=O)N1C[C@@H](CCC(Nc2cccc(S(=O)(=O)NC(=O)c3ccc(-n4ccc(OCCC5C6(CC6)C56CC6)n4)nc3Cl)n2)c2cc(C(C)(C)C)ccn2)CC1(C)C, K2CO3, NMP, 48.8 mM, 140.0 °C, 2 steps), the ring closure, isolated yield worked out at 44.5%.
As to `CC(C)(C)c1ncc2c(n1)N1C[C@@H](CCCNc3cccc(n3)S(=O)(=O)NC2=O)CC1(C)C` [Compound 11, (14S)-8-tert-butyl-12,12-dimethyl-2λ^6-thia-3,7,9,11,18,23-hexaazatetracyclo[17.3.1.111,14.05,10]tetracosa-1(22),5,7,9,19(23),20-hexaene-2,2,4-trione], the “Corrector Assay A % activity” value in series [3] (% of chloride transport of triple combination control (1 μM (14S)-dispiro macrocycle + 3 μM tezacaftor + 300 nM ivacaftor)) is “++ (++ is 30-60%)”. In addition, the 50% effective concentration (EC50) in series [3] (read-out: Corrector Assay A EC50, human intestinal enteroid cells, 18-24 h incubation, acute 10 μM forskolin + 300 nM ivacaftor) lay within 1 to 3 µM. Further, the ring closure, isolated yield in series [2] (from 2-tert-Butyl-4-chloro-N-[[6-[3-[(3S)-5,5-dimethylpyrrolidin-3-yl]propylamino]-2-pyridyl]sulfonyl]pyrimidine-5-carboxamide (dihydrochloride salt), K2CO3/CsF, NMP, 123.1 mM, 150.0 °C) worked out at 13%.
